Patent publication US9889146B2, “Benzoxaborole compounds and uses thereof” (priority 2012, dated 2018)

Assays:
Type in all cases: cell-based
[1] = test system: Morganella morganii (AmpC); test: microbe, parasite or virus in culture; settings: Morganella morganii (AmpC); for MIC90: 18 isolates
E. coli (ESBL) = test: microbe, parasite or virus in culture; settings: E. coli (ESBL); for MIC90: 27 isolates
Klebsiella spp. (ESBL) = test: microbe, parasite or virus in culture; settings: Klebsiella spp. (ESBL); for MIC90: 71 isolates
Proteus vulgaris (WT) = test: microbe, parasite or virus in culture; settings: Proteus vulgaris (WT); for MIC90: 41 isolates
[2] = test system: P. aeruginosa ATCC 27853 wild type and mutants; test: MIC, wild type and GSK2251052 resistant mutants
Method: (§1) Spontaneous Resistance Frequency was determined in vitro for GSK2251052 and the resistance mutants in E. coli ATCC 25922, K. pneumoniae ATCC 13883, and P. aeruginosa ATCC 27853 strains were characterized. GSK2251052 was prepared as described in U.S. Pat. No. 7,816,344 (the entire contents of which are hereby incorporated by reference herein). LB broth, Mueller Hinton II broth (adjusted), and Difco noble agar were obtained from Becton Dickinson (Cockeysville, Md., USA). M9 minimal broth containing 1×M9 salt, 0.5 μg/ML thiamine, 1 mM MgSO4, 0.1 mM CaCl2, 2% glucose, was obtained from Teknova (Hollister, Calif., USA). Antibacterial agents ciprofloxacin, ceftazidime, chloramphenicol, gentamycin, kanamycin, polymixin B, tobramycin and trimethoprim, and amino acids were obtained from Sigma Chemicals (St. Louis, Mo., USA). Strains were obtained from ATCC (Manassas, Va., USA).
(§2) Susceptibility tests were performed following the recommendations for aerobic bacteria (M7-A7) from the Clinical and Laboratories Standards Institute (CLSI).
(§3) Laboratory generated mutants resistant to GSK2251052 contain mutations in the editing domain of LeuRS. Six to ten GSK2251052 resistant colonies of E. coli ATCC 25922, K. pneumoniae ATCC 13883 and P. aeruginosa ATCC 27853 were selected for further analysis and their MICs to GSK2251052 were determined (Table 4-7).

[3] = test system: K. pneumoniae ATCC 13883 wild type and mutants; test: MIC, wild type and GSK2251052 resistant mutants
Method: as §1, §2, §3

[4] = test system: E. coli ATCC 25922 wild type and mutants; test: MIC, wild type and GSK2251052 resistant mutants
Method: as §1, §2, §3

E. coli (WT) = test: microbe, parasite or virus in culture; settings: E. coli (WT); for MIC90: 214 isolates
Providencia spp.(all) = test: microbe, parasite or virus in culture; settings: Providencia spp.(all); for MIC90: 68 isolates
Klebsiella spp. (WT) = test: microbe, parasite or virus in culture; settings: Klebsiella spp. (WT); for MIC90: 159 isolates
[5] = test system: Citrobacter freundii (AmpC); test: microbe, parasite or virus in culture; settings: Citrobacter freundii (AmpC); for MIC90: 60 isolates
Proteus mirabilis (WT) = test: microbe, parasite or virus in culture; settings: Proteus mirabilis (WT); for MIC90: 235 isolates
[6] = test system: Enterobacter aerogenes (WT); test: microbe, parasite or virus in culture; settings: Enterobacter aerogenes (WT); for MIC90: 199 isolates
[7] = test system: Enterobacter aerogenes (AmpC); test: microbe, parasite or virus in culture; settings: Enterobacter aerogenes (AmpC); for MIC90: 51 isolates
[8] = test system: Enterobacter cloacae (AmpC); test: microbe, parasite or virus in culture; settings: Enterobacter cloacae (AmpC); for MIC90: 50 isolates
[9] = test system: Enterobacter cloacae (WT); test: microbe, parasite or virus in culture; settings: for MIC90: 202 isolates
[10] = test system: E. coli ATCC 25922, K. pneumoniae ATCC 13883 and P. aeruginosa ATCC 27853; test: MIC, three strains and their mutants summarised; settings: MIC in E. coli, P. aeruginosa and K. pneumoniae mutants versus wild-type
Method: as §1, §2, §3
GSK2251052 resistant mutants were not cross-resistant to commercial antibiotics.

Enterobacteriaceae = test: organism not typed; settings: Enterobacteriaceae; for MIC90: 2029 isolates
Klebsiella spp. (KPC) = test: microbe, parasite or virus in culture; settings: Klebsiella spp. (KPC); for MIC90: 26 isolates
S. marcescens (AmpC) = test: microbe, parasite or virus in culture; settings: S. marcescens (AmpC); for MIC90: 26 isolates

Substance: Gentamicin
- MIC90 [1]: > 16 µg/mL
- MIC90 (E. coli (ESBL)): > 16 µg/mL
- MIC90 (Klebsiella spp. (ESBL)): > 16 µg/mL
- MIC90 (Proteus vulgaris (WT)): 2 µg/mL
- MICs ([2]; P wt.): 8 µg/mL
- MICs ([2]; mutant P 101): 4 µg/mL
- MICs ([2]; mutant P106): 4 µg/mL
- MICs ([2]; mutant P108): 4 µg/mL
- MICs ([3]; K wt.): 1 µg/mL
- MICs ([3]; mutant K 104): 1 µg/mL
- MICs ([3]; mutant K 105): 1 µg/mL
- MICs ([3]; mutant K 107): 1 µg/mL
- MICs ([3]; mutant K 108): 0.5 µg/mL
- MICs ([3]; mutant K 110): 1 µg/mL
- MICs ([4]; E wt): 2 µg/mL
- MICs ([4]; mutant E 101): 1 µg/mL
- MICs ([4]; mutant E 102): 1 µg/mL
- MICs ([4]; mutant E 107): 1 µg/mL
- MIC90 (E. coli (WT)): > 16 µg/mL
- MIC90 (Providencia spp.(all)): > 16 µg/mL
- MIC90 (Klebsiella spp. (WT)): 1 µg/mL
- MIC90 [5]: > 16 µg/mL
- MIC90 (Proteus mirabilis (WT)): 4 µg/mL
- MIC90 [6]: 1 µg/mL
- MIC90 [7]: 4 µg/mL
- MIC90 [8]: > 16 µg/mL
- MIC90 [9]: 1 µg/mL
- cross-resistance of GSK2251052 resistant mutants [10]: did not have any significant difference in MIC values than wild-type
- MIC90 (Enterobacteriaceae): 16 µg/mL
- MIC90 (Klebsiella spp. (KPC)): 16 µg/mL
- MIC90 (S. marcescens (AmpC)): > 16 µg/mL

Substance: Polymixin B
- MIC90 [1]: > 8 µg/mL
- susceptibility category of MIC90 ([1]; polymixinB criteria): *** (resistant ≧8 μg/mL)
- MIC90 (E. coli (ESBL)): 2 µg/mL
- susceptibility category of MIC90 (E. coli (ESBL); polymixinB criteria): * (susceptible ≦2 μg/mL)
- MIC90 (Klebsiella spp. (ESBL)): 2 µg/mL
- susceptibility category of MIC90 (Klebsiella spp. (ESBL); polymixinB criteria): * (susceptible ≦2 μg/mL)
- MIC90 (Proteus vulgaris (WT)): > 8 µg/mL
- susceptibility category of MIC90 (Proteus vulgaris (WT); polymixinB criteria): *** (resistant ≧8 μg/mL)
- MICs ([2]; P wt.): 4 µg/mL
- MICs ([2]; mutant P 101): 4 µg/mL
- MICs ([2]; mutant P106): 2 µg/mL
- MICs ([2]; mutant P108): 4 µg/mL
- MICs ([3]; K wt.): 4 µg/mL
- MICs ([3]; mutant K 104): 8 µg/mL
- MICs ([3]; mutant K 105): 4 µg/mL
- MICs ([3]; mutant K 107): 2 µg/mL
- MICs ([3]; mutant K 108): 4 µg/mL
- MICs ([3]; mutant K 110): 4 µg/mL
- MICs ([4]; E wt): 4 µg/mL
- MICs ([4]; mutant E 101): 4 µg/mL
- MICs ([4]; mutant E 102): 4 µg/mL
- MICs ([4]; mutant E 107): 4 µg/mL
- MIC90 (E. coli (WT)): 1 µg/mL
- susceptibility category of MIC90 (E. coli (WT); polymixinB criteria): * (susceptible ≦2 μg/mL)
- MIC90 (Providencia spp.(all)): 8 µg/mL
- susceptibility category of MIC90 (Providencia spp.(all); polymixinB criteria): *** (resistant ≧8 μg/mL)
- MIC90 (Klebsiella spp. (WT)): 1 µg/mL
- susceptibility category of MIC90 (Klebsiella spp. (WT); polymixinB criteria): * (susceptible ≦2 μg/mL)
- MIC90 [5]: 1 µg/mL
- susceptibility category of MIC90 ([5]; polymixinB criteria): * (susceptible ≦2 μg/mL)
- MIC90 (Proteus mirabilis (WT)): > 8 µg/mL
- susceptibility category of MIC90 (Proteus mirabilis (WT); polymixinB criteria): *** (resistant ≧8 μg/mL)
- MIC90 [6]: 4 µg/mL
- susceptibility category of MIC90 ([6]; polymixinB criteria): ** (intermediate 4 μg/mL)
- MIC90 [7]: 2 µg/mL
- susceptibility category of MIC90 ([7]; polymixinB criteria): * (susceptible ≦2 μg/mL)
- MIC90 [8]: 4 µg/mL
- susceptibility category of MIC90 ([8]; polymixinB criteria): ** (intermediate 4 μg/mL)
- MIC90 [9]: > 8 µg/mL
- susceptibility category of MIC90 ([9]; polymixinB criteria): *** (resistant ≧8 μg/mL)
- cross-resistance of GSK2251052 resistant mutants [10]: did not have any significant difference in MIC values than wild-type
- MIC90 (Enterobacteriaceae): > 8 µg/mL
- susceptibility category of MIC90 (Enterobacteriaceae; polymixinB criteria): *** (resistant ≧8 μg/mL)
- MIC90 (Klebsiella spp. (KPC)): > 8 µg/mL
- susceptibility category of MIC90 (Klebsiella spp. (KPC); polymixinB criteria): *** (resistant ≧8 μg/mL)
- MIC90 (S. marcescens (AmpC)): > 8 µg/mL
- susceptibility category of MIC90 (S. marcescens (AmpC); polymixinB criteria): *** (resistant ≧8 μg/mL)
